The record followed here is patent publication US11866430B2, “Naphthyridinone compounds useful as T cell activators” (priority 2018, dated 2024).

Where two headings read alike, the source gives them in different places.

Assay [1] addresses human DGKζ (Homo sapiens (Human), UniProt Q13574). Description: DGKζ LIPGLO assay (extruded liposome substrate). The assay is classed as biochemical. The gist of the method: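 Recombinant DGKζ (Sf9-expressed, Ni/SEC/SP-purified) preincubated 10 min with extruded 100 nm PC/DAG/PS liposomes in 50 mM MOPS pH 7.5, 100 mM NaCl, 10 mM MgCl2, 1 μM CaCl2, 1 mM DTT. Started with 300 uM ATP solution (stock, pre-addition); 1 hr reaction. ADP-Glo luminescence; IC50 from 11 concentrations.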

The target of assay [2] is human DGKα (Homo sapiens (Human), UniProt P23743). Put plainly: DGKα LIPGLO assay (extruded liposome substrate). The assay is classed as biochemical. A digest of the protocol: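 Human full-length DGKα, His-tagged and produced in Sf9 cells, assayed at 20 nM (4× stock) on extruded liposomes of PS, 0.25 mM DAG and 2.75 mM PC, preincubated 10 min. Reaction started with 300 μM ATP (stock) and ran 1 h in MOPS pH 7.5/MgCl2/CaCl2/DTT buffer.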
human DGKα, sequence (P23743 other isoform, or with tags, fused parts or gaps): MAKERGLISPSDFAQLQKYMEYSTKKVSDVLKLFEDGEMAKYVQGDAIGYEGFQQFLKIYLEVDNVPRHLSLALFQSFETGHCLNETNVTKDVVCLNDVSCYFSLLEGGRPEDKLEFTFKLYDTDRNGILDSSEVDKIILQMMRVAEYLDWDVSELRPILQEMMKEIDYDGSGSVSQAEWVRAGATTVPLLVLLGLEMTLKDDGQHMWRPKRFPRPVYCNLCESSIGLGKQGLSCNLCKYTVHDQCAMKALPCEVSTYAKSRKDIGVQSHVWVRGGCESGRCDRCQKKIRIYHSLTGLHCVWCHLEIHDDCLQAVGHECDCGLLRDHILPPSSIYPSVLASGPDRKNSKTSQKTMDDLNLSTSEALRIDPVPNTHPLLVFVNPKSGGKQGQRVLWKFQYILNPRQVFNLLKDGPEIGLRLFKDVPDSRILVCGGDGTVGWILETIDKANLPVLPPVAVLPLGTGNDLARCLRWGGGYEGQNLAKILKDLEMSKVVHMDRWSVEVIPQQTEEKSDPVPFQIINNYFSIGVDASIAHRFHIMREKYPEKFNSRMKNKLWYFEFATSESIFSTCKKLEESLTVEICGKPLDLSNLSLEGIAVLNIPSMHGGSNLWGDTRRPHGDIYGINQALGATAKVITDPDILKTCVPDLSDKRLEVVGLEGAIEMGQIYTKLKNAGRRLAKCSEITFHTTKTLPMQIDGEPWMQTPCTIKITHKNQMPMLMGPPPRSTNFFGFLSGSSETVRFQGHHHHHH

[3] abbreviates: extruded liposome substrate, read-out: DGKζ LIPGLO IC50.
Where [4] appears, read: DGKζ LIPGLO IC50, extruded liposome substrate.

human DGKζ, sequence (Q13574 other isoform, or with tags, fused parts or gaps): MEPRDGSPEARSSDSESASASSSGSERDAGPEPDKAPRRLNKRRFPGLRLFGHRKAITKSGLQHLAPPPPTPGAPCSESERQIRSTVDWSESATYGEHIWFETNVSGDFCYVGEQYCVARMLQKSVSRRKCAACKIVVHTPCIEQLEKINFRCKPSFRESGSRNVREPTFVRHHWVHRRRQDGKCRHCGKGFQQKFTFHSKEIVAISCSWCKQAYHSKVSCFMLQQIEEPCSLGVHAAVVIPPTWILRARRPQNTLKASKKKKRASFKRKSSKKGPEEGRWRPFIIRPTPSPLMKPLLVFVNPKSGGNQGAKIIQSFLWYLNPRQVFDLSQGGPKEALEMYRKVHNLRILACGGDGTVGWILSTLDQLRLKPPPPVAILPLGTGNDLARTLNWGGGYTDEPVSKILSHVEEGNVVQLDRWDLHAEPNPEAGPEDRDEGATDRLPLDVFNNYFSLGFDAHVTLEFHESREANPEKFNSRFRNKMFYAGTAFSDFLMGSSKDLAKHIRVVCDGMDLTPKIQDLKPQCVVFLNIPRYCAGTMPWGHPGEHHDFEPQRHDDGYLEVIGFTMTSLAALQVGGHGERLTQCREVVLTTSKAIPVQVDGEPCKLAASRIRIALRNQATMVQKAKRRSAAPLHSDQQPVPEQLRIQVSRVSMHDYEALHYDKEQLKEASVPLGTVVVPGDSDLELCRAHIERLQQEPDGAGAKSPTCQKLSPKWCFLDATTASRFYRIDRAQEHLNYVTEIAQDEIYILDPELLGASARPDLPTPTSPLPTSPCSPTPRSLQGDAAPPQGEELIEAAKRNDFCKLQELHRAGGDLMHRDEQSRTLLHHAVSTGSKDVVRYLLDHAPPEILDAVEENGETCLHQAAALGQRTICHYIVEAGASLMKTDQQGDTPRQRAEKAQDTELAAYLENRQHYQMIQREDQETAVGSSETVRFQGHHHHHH

`COc1ccc2c(n1)c(N1CCN(C(c3ccc(F)cc3)c3ccc(F)cc3OC)CC1)c(C#N)c(=O)n2C` (racemic) [Example 412, 4-{4-[(4-fluoro-2-methoxyphenyl)(4-fluorophenyl)methyl]piperazin-1-yl}-6-methoxy-1-methyl-2-oxo-1,2-dihydro-1,5-naphthyridine-3-carbonitrile]: the half-maximal inhibitory concentration (IC50) – broadly, the concentration at which inhibition is half-maximal – in assay [1] (setting [3]) amounted to 600 nM; in assay [2] it was 1800 nM. In assay [2], `COc1ccccc1C(c1ccc(F)cc1)N1CCN(c2c(C#N)c(=O)n(C)c3ccc(Br)nc23)CC1` (single isomer, unassigned) [Example 13, 6-bromo-4-{4-[(4-fluorophenyl)(2-methoxyphenyl)methyl]piperazin-1-yl}-1-methyl-2-oxo-1,2-dihydro-1,5-naphthyridine-3-carbonitrile] had an IC50 of 5400 nM.

Consider `COc1cc(F)ccc1C(c1ccc(F)cc1)N1CCN(c2c(C#N)c(=O)n(C)c3ccc(Br)nc23)CC1` (single isomer, unassigned) [Example 17, 6-bromo-4-{4-[(4-fluoro-2-methoxyphenyl)(4-fluorophenyl)methyl]piperazin-1-yl}-1-methyl-2-oxo-1,2-dihydro-1,5-naphthyridine-3-carbonitrile], for which the values for the IC50 in assay [1] (setting [3]) and in assay [2] were 9400 nM and 3500 nM, respectively. For the compound `CC(c1ccc(F)cc1)N1CCN(c2c([N+](=O)[O-])c(=O)n(C)c3ccc(C#N)nc23)CC1` (single isomer, unassigned) [Example 44, 8-(4-(1-(4-fluorophenyl)ethyl)piperazin-1-yl)-5-methyl-7-nitro-6-oxo-5,6-dihydro-1,5-naphthyridine-2-carbonitrile], the results for the 50% inhibitory concentration (IC50) in assay [1] (setting [3]) and in assay [2] were 1300 nM and 370 nM, respectively. In the same order, the values of `C#CCn1c(=O)c([N+](=O)[O-])c(N2CCN(C(c3ccc(F)cc3)c3ccc(F)cc3O)CC2)c2nc(C#N)ccc21` (single isomer, unassigned) [Example 121, 8-(4-((4-fluoro-2-hydroxyphenyl)(4-fluorophenyl)methyl)piperazin-1-yl)-7-nitro-6-oxo-5-(prop-2-yn-1-yl)-5,6-dihydro-1,5-naphthyridine-2-carbonitrile] are 55 nM and 6400 nM. For the compound `COc1cc(F)ccc1C(c1ccc(F)cc1)N1CCN(c2c([N+](=O)[O-])c(=O)n(C)c3ccc(C#N)nc23)CC1` (single isomer, unassigned) [Example 124, 8-(4-((4-fluoro-2-methoxyphenyl)(4-fluorophenyl)methyl)piperazin-1-yl)-5-methyl-7-nitro-6-oxo-5,6-dihydro-1,5-naphthyridine-2-carbonitrile], the IC50 came to 160 nM in assay [1] (setting [4]) and 750 nM in assay [2].

Take `C#CCn1c(=O)c([N+](=O)[O-])c(N2CCN(C(C)c3ccc(F)cc3)CC2)c2nc(C#N)ccc21` (single isomer, unassigned) [Example 136, 8-(4-(1-(4-fluorophenyl)ethyl)piperazin-1-yl)-7-nitro-6-oxo-5-(prop-2-yn-1-yl)-5,6-dihydro-1,5-naphthyridine-2-carbonitrile]: the IC50 was determined as 210 nM in assay [1] (setting [4]) and 790 nM in assay [2]. Regarding `C#CCn1c(=O)c([N+](=O)[O-])c(N2CCN(C(C)c3ccc(F)cc3)CC2)c2nc(C#N)ccc21` (single isomer, unassigned) [Example 137, 8-(4-(1-(4-fluorophenyl)ethyl)piperazin-1-yl)-7-nitro-6-oxo-5-(prop-2-yn-1-yl)-5,6-dihydro-1,5-naphthyridine-2-carbonitrile], the IC50 in assay [1] (setting [4]) is 850 nM; in assay [2], 1500 nM.

In the case of `C#CCn1c(=O)c([N+](=O)[O-])c(N2CCN(C(CC)c3ccc(F)cc3)CC2)c2nc(C#N)ccc21` (single isomer, unassigned) [Example 141, 8-{4-[1-(4-fluorophenyl)propyl]piperazin-1-yl}-7-nitro-6-oxo-5-(prop-2-yn-1-yl)-5,6-dihydro-1,5-naphthyridine-2-carbonitrile], the results for the half-inhibitory concentration (IC50) in assay [1] (setting [3]) and in assay [2] were 1400 nM and 580 nM, respectively. In the same order, the values of `C#CCn1c(=O)c([N+](=O)[O-])c(N2CCN(C(c3ccc(F)cc3)C3CC3)CC2)c2nc(C#N)ccc21` (single isomer, unassigned) [Example 143, 8-(4-(cyclopropyl(4-fluorophenyl)methyl)piperazin-1-yl)-7-nitro-6-oxo-5-(prop-2-yn-1-yl)-5,6-dihydro-1,5-naphthyridine-2-carbonitrile] are 1100 nM and 3400 nM. In the same order, the values of `CC(C)C(c1ccc(F)cc1)N1CCN(c2c(C#N)c(=O)n(C)c3ccc(Cl)nc23)CC1` (single isomer, unassigned) [Example 315, 6-chloro-4-{4-[1-(4-fluorophenyl)-2-methylpropyl]piperazin-1-yl}-methyl-2-oxo-1,2-dihydro-1,5-naphthyridine-3-carbonitrile] are 1600 nM and more than 240000 nM. In the same order, the values of `Cn1c(=O)c(C#N)c(N2CCN(C(CC(C)(C)C)c3ccc(F)cc3)CC2)c2nc(Cl)ccc21` (single isomer, unassigned) [Example 377, 6-chloro-4-{4-[1-(4-fluorophenyl)-3,3-dimethylbutyl]piperazin-1-yl}-1-methyl-2-oxo-1,2-dihydro-1,5-naphthyridine-3-carbonitrile] are 130000 nM and more than 240000 nM. Consider `Cn1c(=O)c(C#N)c(N2CCN(C(CC(C)(C)C)c3ccc(F)cc3)CC2)c2nc(Cl)ccc21` (single isomer, unassigned) [Example 378, 6-chloro-4-{4-[1-(4-fluorophenyl)-3,3-dimethylbutyl]piperazin-1-yl}-1-methyl-2-oxo-1,2-dihydro-1,5-naphthyridine-3-carbonitrile], for which the IC50 was more than 240000 nM in assay [1] (setting [3]) and 2200 nM in assay [2]. On the same counts, the results for `Cn1c(=O)c(C#N)c(N2CCN(C(c3ccc(F)cc3)C3CCC3)CC2)c2nc(Cl)ccc21` (single isomer, unassigned) [Example 382, 6-chloro-4-{4-[cyclobutyl(4-fluorophenyl)methyl]piperazin-1-yl}-1-methyl-2-oxo-1,2-dihydro-1,5-naphthyridine-3-carbonitrile] are more than 240000 nM and 760 nM. As to `Cn1c(=O)c(C#N)c(N2CCN(C(c3ccc(F)cc3)C3CCC3)CC2)c2nc(Cl)ccc21` (single isomer, unassigned) [Example 383, 6-chloro-4-{4-[cyclobutyl(4-fluorophenyl)methyl]piperazin-1-yl}-1-methyl-2-oxo-1,2-dihydro-1,5-naphthyridine-3-carbonitrile], the 50% inhibitory concentration (IC50) in assay [1] (setting [3]) was more than 2400 nM; in assay [2], 220 nM.

In the case of `CC(c1ccc(F)cc1)N1CCN(c2c(C#N)c(=O)n(C)c3ccc(Cl)nc23)CC1` (single isomer, unassigned) [Example 387, 6-chloro-4-{4-[1-(4-fluorophenyl)ethyl]piperazin-1-yl}-1-methyl-2-oxo-1,2-dihydro-1,5-naphthyridine-3-carbonitrile], the 50% inhibitory concentration (IC50) in assay [1] (setting [3]) turned out to be 1600 nM; in assay [2] it was 270 nM. Consider `CC(c1ccc(F)cc1)N1CCN(c2c(C#N)c(=O)n(C)c3ccc(Cl)nc23)CC1` (single isomer, unassigned) [Example 388, 6-chloro-4-{4-[1-(4-fluorophenyl)ethyl]piperazin-1-yl}-1-methyl-2-oxo-1,2-dihydro-1,5-naphthyridine-3-carbonitrile], for which the IC50 in assay [1] (setting [3]) worked out at 130000 nM; in assay [2], 51 nM.
